From PubChem BioAssay AID1259407 (Chemical Carcinogenesis Research Information System (CCRIS), 2018)
Activity calls are given as the source filed them. The rule behind the calls is not given here.

Tested on: CCRIS mutagenicity, Ames/micronucleus/aberration tests
Assay: CCRIS mutagenicity studies
[1] = Test System: AMES SALMONELLA TYPHIMURIUM, Strain/Indicator: TA98, Metabolic Activation: NONE, Method: PREINCUBATION
[2] = Test System: AMES SALMONELLA TYPHIMURIUM, Strain/Indicator: TA98, Metabolic Activation: RAT, LIVER, S-9, AROCLOR 1254, Method: STANDARD PLATE
[3] = Test System: AMES SALMONELLA TYPHIMURIUM, Strain/Indicator: TA100, Metabolic Activation: NONE, Method: PREINCUBATION
[4] = Test System: AMES SALMONELLA TYPHIMURIUM, Strain/Indicator: TA100, Metabolic Activation: RAT, LIVER, S-9, PCB, Method: PREINCUBATION
[5] = Test System: AMES SALMONELLA TYPHIMURIUM, Strain/Indicator: TA1537, Metabolic Activation: NONE, Method: PREINCUBATION
[6] = Test System: AMES SALMONELLA TYPHIMURIUM, Strain/Indicator: TA1537, Metabolic Activation: NONE, Method: STANDARD PLATE
[7] = Test System: AMES SALMONELLA TYPHIMURIUM, Strain/Indicator: TA98, Metabolic Activation: HAMSTER, LIVER, S-9, AROCLOR 1254 (10%), Method: PREINCUBATION
[8] = Test System: AMES SALMONELLA TYPHIMURIUM, Strain/Indicator: TA98, Metabolic Activation: RAT, LIVER, S-9, AROCLOR 1254 (10%), Method: PREINCUBATION
[9] = Test System: AMES SALMONELLA TYPHIMURIUM, Strain/Indicator: TA100, Metabolic Activation: HAMSTER, LIVER, S-9, AROCLOR 1254 (10%), Method: PREINCUBATION
[10] = Test System: AMES SALMONELLA TYPHIMURIUM, Strain/Indicator: TA100, Metabolic Activation: RAT, LIVER, S-9, AROCLOR 1254 (10%), Method: PREINCUBATION
[11] = Test System: AMES SALMONELLA TYPHIMURIUM, Strain/Indicator: TA1535, Metabolic Activation: HAMSTER, LIVER, S-9, AROCLOR 1254 (10%), Method: PREINCUBATION
[12] = Test System: AMES SALMONELLA TYPHIMURIUM, Strain/Indicator: TA1535, Metabolic Activation: NONE, Method: PREINCUBATION
[13] = Test System: AMES SALMONELLA TYPHIMURIUM, Strain/Indicator: TA1535, Metabolic Activation: RAT, LIVER, S-9, AROCLOR 1254 (10%), Method: PREINCUBATION
[14] = Test System: AMES SALMONELLA TYPHIMURIUM, Strain/Indicator: TA1537, Metabolic Activation: HAMSTER, LIVER, S-9, AROCLOR 1254 (10%), Method: PREINCUBATION
[15] = Test System: AMES SALMONELLA TYPHIMURIUM, Strain/Indicator: TA1537, Metabolic Activation: RAT, LIVER, S-9, AROCLOR 1254 (10%), Method: PREINCUBATION

Which results are given for `O=C1c2ccccc2C(=O)c2c(O)c(O)cc(O)c21`?
mutagenic call [1]: inactive; negative; mutagenic call [2]: inactive; negative; mutagenic call (Test System: AMES SALMONELLA TYPHIMURIUM, Strain/Indicator: TA98, Metabolic Activation: RAT, LIVER, S-9, PCB, Method: PREINCUBATION): inactive; negative; mutagenic call [3]: inactive; negative; mutagenic call (Test System: AMES SALMONELLA TYPHIMURIUM, Strain/Indicator: TA100, Metabolic Activation: RAT, LIVER, S-9, AROCLOR 1254, Method: STANDARD PLATE): inactive; negative; mutagenic call [4]: inactive; negative; mutagenic call (Test System: AMES SALMONELLA TYPHIMURIUM, Strain/Indicator: TA1535, Metabolic Activation: NONE, Method: STANDARD PLATE): inactive; negative; mutagenic call (Test System: AMES SALMONELLA TYPHIMURIUM, Strain/Indicator: TA1535, Metabolic Activation: RAT, LIVER, S-9, AROCLOR 1254, Method: STANDARD PLATE): inactive; negative; mutagenic call [5]: active; positive; mutagenic call [6]: active; positive; mutagenic call (Test System: AMES SALMONELLA TYPHIMURIUM, Strain/Indicator: TA1537, Metabolic Activation: RAT, LIVER, S-9, AROCLOR 1254, Method: STANDARD PLATE): active; positive; mutagenic call (Test System: AMES SALMONELLA TYPHIMURIUM, Strain/Indicator: TA1537, Metabolic Activation: RAT, LIVER, S-9, Method: PREINCUBATION): active; positive; mutagenic call (Test System: CHINESE HAMSTER V-79, Strain/Indicator: V-79/8-AZAGUANINE, Metabolic Activation: NONE, Method: STANDARD PLATE): active; positive; mutagenic call (Test System: UDS RODENT HEPATOCYTES, Strain/Indicator: THY INCORP (NON-S-PHASE), Method: AUTORADIOGRAPHY): active; positive

How did the mutagenic call (Test System: E. COLI, Strain/Indicator: WP2 UVRA, Metabolic Activation: NONE, Method: FLUCTUATION TEST) turn out when `O=C(NO)OCc1ccccc1` was run?
The mutagenic call was “active; positive”.

How did the mutagenic call [7] turn out when `CC(N)CN` (configuration not stated) was run?
Its mutagenic call is “inactive; negative”.

And the mutagenic call [1]?
Its mutagenic call is “inactive; negative”.

What about the mutagenic call [8] of the same compound?
The mutagenic call was “inactive; negative”.

What about the mutagenic call [9] of the same compound?
Its mutagenic call is “inactive; negative”.

And the mutagenic call [3]?
Its mutagenic call is “inactive; negative”.

And the mutagenic call [10]?
Its mutagenic call is “inactive; negative”.

What about the mutagenic call [11] of the same compound?
The mutagenic call was “inactive; negative”.

What about the mutagenic call [12] of the same compound?
Its mutagenic call is “inactive; negative”.

What about the mutagenic call [13] of the same compound?
The mutagenic call was “inactive; negative”.

What about the mutagenic call [14] of the same compound?
The mutagenic call was “inactive; negative”.

What about the mutagenic call [5] of the same compound?
The mutagenic call was “inactive; negative”.

And the mutagenic call [15]?
Its mutagenic call is “inactive; negative”.

For `O=C1NS(=O)(=O)c2ccccc21`, which mutagenic call (Test System: AMES SALMONELLA TYPHIMURIUM, Strain/Indicator: TA97A, Metabolic Activation: NONE, Method: PREINCUBATION) is on record?
The mutagenic call was “inactive; negative”.

What about the mutagenic call (Test System: AMES SALMONELLA TYPHIMURIUM, Strain/Indicator: TA97A, Metabolic Activation: RAT, LIVER, S-9, AROCLOR 1254, Method: PREINCUBATION) of the same compound?
Its mutagenic call is “inactive; negative”.

And the mutagenic call (Test System: AMES SALMONELLA TYPHIMURIUM, Strain/Indicator: TA102, Metabolic Activation: NONE, Method: PREINCUBATION)?
The mutagenic call was “inactive; negative”.

And the mutagenic call (Test System: AMES SALMONELLA TYPHIMURIUM, Strain/Indicator: TA102, Metabolic Activation: RAT, LIVER, S-9, AROCLOR 1254, Method: PREINCUBATION)?
Its mutagenic call is “inactive; negative”.

Which mutagenic call (End Point: In vitro micronucleus, Test System: WTK-1 human lymphoma cells, Metabolic Activation: None) does the source give for `O=C(O)c1cn(C2CC2)c2cc(N3CCNCC3)c(F)cc2c1=O` here?
Its mutagenic call is “inactive; negative”.

And the mutagenic call (Test System: AMES SALMONELLA TYPHIMURIUM, Strain/Indicator: HISC3076, Metabolic Activation: NONE, Method: STANDARD PLATE)?
The mutagenic call was “inactive; negative”.

And the mutagenic call (Test System: AMES SALMONELLA TYPHIMURIUM, Strain/Indicator: HISD3052, Metabolic Activation: NONE, Method: STANDARD PLATE)?
The mutagenic call was “active; positive”.

What about the mutagenic call (Test System: AMES SALMONELLA TYPHIMURIUM, Strain/Indicator: HISG428, Metabolic Activation: NONE, Method: STANDARD PLATE) of the same compound?
Its mutagenic call is “inactive; negative”.

What about the mutagenic call (Test System: AMES SALMONELLA TYPHIMURIUM, Strain/Indicator: TA92, Metabolic Activation: NONE, Method: STANDARD PLATE) of the same compound?
Its mutagenic call is “active; positive”.

And the mutagenic call (Test System: AMES SALMONELLA TYPHIMURIUM, Strain/Indicator: TA94, Metabolic Activation: NONE, Method: STANDARD PLATE)?
The mutagenic call was “active; positive”.

And the mutagenic call (Test System: AMES SALMONELLA TYPHIMURIUM, Strain/Indicator: TA102, Metabolic Activation: NONE, Method: STANDARD PLATE)?
Its mutagenic call is “active; positive”.

What about the mutagenic call (Test System: AMES SALMONELLA TYPHIMURIUM, Strain/Indicator: TA103, Metabolic Activation: NONE, Method: STANDARD PLATE) of the same compound?
The mutagenic call was “active; positive”.

What about the mutagenic call (Test System: AMES SALMONELLA TYPHIMURIUM, Strain/Indicator: TA104, Metabolic Activation: NONE, Method: STANDARD PLATE) of the same compound?
Its mutagenic call is “inactive; negative”.

What about the mutagenic call (Test System: AMES SALMONELLA TYPHIMURIUM, Strain/Indicator: TA2425, Metabolic Activation: NONE, Method: STANDARD PLATE) of the same compound?
Its mutagenic call is “active; positive”.

What about the mutagenic call (Test System: AMES SALMONELLA TYPHIMURIUM, Strain/Indicator: TA2638, Metabolic Activation: NONE, Method: STANDARD PLATE) of the same compound?
The mutagenic call was “active; positive”.

What about the mutagenic call (Test System: AMES SALMONELLA TYPHIMURIUM, Strain/Indicator: TA2661, Metabolic Activation: NONE, Method: STANDARD PLATE) of the same compound?
Its mutagenic call is “inactive; negative”.

And the mutagenic call (Test System: AMES SALMONELLA TYPHIMURIUM, Strain/Indicator: TA2662, Metabolic Activation: NONE, Method: STANDARD PLATE)?
Its mutagenic call is “active; positive”.

What about the mutagenic call (Test System: AMES SALMONELLA TYPHIMURIUM, Strain/Indicator: TA2678, Metabolic Activation: NONE, Method: STANDARD PLATE) of the same compound?
Its mutagenic call is “inactive; negative”.

And the mutagenic call (Test System: CHINESE HAMSTER V-79, Strain/Indicator: V-79 (HPRT)/6-THIOGUANINE, Metabolic Activation: NONE)?
Its mutagenic call is “active; positive”.

And the mutagenic call (Test System: MOUSE LYMPHOMA, Strain/Indicator: L5178Y (TK+/TK-), Metabolic Activation: NONE, Method: FLUCTUATION TEST)?
The mutagenic call was “active; positive”.

How did the mutagenic call [6] turn out when `CNc1ccc(Nc2c3ccccc3nc3ccccc23)cc1` was run?
The mutagenic call was “active; positive”.

With `Cc1cc2cc3cc(C)c(N)cc3nc2cc1N` as the compound, how does the mutagenic call (Test System: AMES SALMONELLA TYPHIMURIUM, Strain/Indicator: TA98, Method: PREINCUBATION) read?
The mutagenic call was “active; positive”.

And the mutagenic call (Test System: AMES SALMONELLA TYPHIMURIUM, Strain/Indicator: TA100, Method: PREINCUBATION)?
Its mutagenic call is “active; positive”.

How did the mutagenic call (Test System: AMES SALMONELLA TYPHIMURIUM, Strain/Indicator: TA98, Metabolic Activation: NONE, Method: STANDARD PLATE) turn out when `Nc1ccc(Sc2ccccc2)cc1` was run?
The mutagenic call was “inactive; negative”.

What about the mutagenic call [2] of the same compound?
Its mutagenic call is “active; positive”.

Which results are given for `CC(=O)/C(C)=N/O`?
mutagenic call [7]: inactive; negative; mutagenic call [1]: inactive; negative; mutagenic call [8]: inactive; negative; mutagenic call [9]: inactive; negative; mutagenic call [3]: inactive; negative; mutagenic call [10]: inactive; negative; mutagenic call [11]: inactive; negative; mutagenic call [12]: inactive; negative; mutagenic call [13]: inactive; negative; mutagenic call [14]: inactive; negative; mutagenic call [5]: inactive; negative; mutagenic call [15]: inactive; negative

`C[C@@H]1C[C@]2(O[C@@H]2C)C(=O)O[C@@H]2CCN(C)C/C=C(/COC(=O)[C@]1(C)O)C2=O` was tested. Which mutagenic call (Test System: AMES SALMONELLA TYPHIMURIUM, Strain/Indicator: TA100, Metabolic Activation: HAMSTER, LIVER, S-9, PCB, Method: PREINCUBATION) did it give?
Its mutagenic call is “inactive; negative; by authors criteria results are positive”.

What about the mutagenic call [4] of the same compound?
Its mutagenic call is “active; positive”.

And the mutagenic call (Test System: UDS RAT HEPATOCYTES, Strain/Indicator: THY INCORP, Metabolic Activation: NONE, Method: AUTORADIOGRAPHY)?
The mutagenic call was “active; positive”.
